Experimental data from patent publication US8940936B2, “Aryloxy phenoxy acrylic compound having HIF-1 inhibition activity, method for preparing same, and pharmaceutical composition containing same as an active ingredient” (Korea Research Institute of Bioscience and Biotechnology, priority 2010, dated 2015).
Values joined by “and” are separate entries in the source; they are usually repeats but may differ in a detail not shown here. Identical values can stand only once.

What was measured:
[1] = Mouse weight changes and symptoms, repeated intravenous administration (HCT116 model); format: in vivo; conditions: for Mouse weight changes (%): iv once a day, Example 1 30 mg/kg, topotecan 2 mg/kg
Method: Female nude mice at 6 weeks (BALB/c nu/nu, Charles River) were raised in a germ-free facility where temperature and humidity were maintained at proper levels during the whole experimental period. After anesthetizing each mouse, the human rectal cancer cell line HCT116 was transplanted in rectal tissues at the density of 4×10^7 cells/mouse, and then the opened rectum was sealed with surgical clips. After transplanting the rectal cancer cell line, the tumor volume was measured with calipers. When the tumor volume reached 54.5 mm^3, the compound of the present invention prepared in example 1 was treated thereto. Particularly, for the experimental group, the compound of example 1 was dissolved in the solvent composed of saline (80%), DMAC (10%), and tween 80 (10%), which is indicated as ‘solvent A’ hereinafter, at the concentration of 30 mg/kg. The prepared compound solution was intravenously administered to the experimental group mice once a day at the dose of […]. The control was treated with the solvent A only without the compound once a day via oral administration at the dose of 15 ml/kg. The comparative group was treated with the solvent A containing topotecan (2 mg/kg) via intravenous injection once a day at the dose of 15 ml/kg. The weight and the tumor volume were measured once a day on day 0, 2, 3, 4, 5, 6, and 8.
Tumor volume was calculated by the following mathematical formula 1. To investigate the toxicity according to the repeated intravenous administration of the compound of example 1, mouse weight changes were observed and presented in Table 3. Inhibition rate (%) in Table 4 was calculated by the following mathematical formula 2, which indicates the inhibition of tumor growth by the compound presented by %. Tumor Volume(mm^3)=(major axis length of tumor cells, mm)×(minor axis length of tumor cells, mm)^2×0.5 [Mathematical Formula 1] Inhibition Rate (%)=[(Tumor Volume of Control−Tumor Volume of Experimental Group)/(Tumor Volume of Control)]×100 [Mathematical Formula 2]

[2] = test system: human kidney cancer cell line Caki-1; assay: In vivo anticancer activity, intravenous injection 2, Caki-1 kidney cancer in nude mice; design: species or system mouse; conditions: Example 1 20 mg/kg/day, topotecan 2 mg/kg/day
Method: To evaluate the inhibition effect of the compound prepared in example 1 administered via intravenous injection on the growth of kidney cancer, in vivo anticancer activity in mouse was measured. Particularly, nude-mice were grouped for experimental and control groups (5 mice per group). Changes in body weight, tumor volume, and tumor weight were measured to evaluate in vivo anticancer activity.
(§1) Female nude mice at 6 weeks (BALB/c nu/nu, Charles River) were raised in a germ-free facility where temperature and humidity were maintained at proper levels during the whole experimental period. After anesthetizing each mouse, the human kidney cancer cell line Caki-1 was transplanted in kidney tissues at the density of 4×10^7 cells/mouse, and then the opened kidney was sealed with surgical clips. After transplanting the kidney cancer cell line, the tumor volume was measured with calipers. When the tumor volume reached 52.7 mm^3, the compound of the present invention prepared in example 1 was treated thereto. Particularly, for the experimental group, the compound of example 1 was dissolved in the solvent composed of cremophor (10%), DMAC (10%), and pH 10 buffer […], which is indicated as ‘solvent B’ hereinafter, at the concentration of 20 mg/kg. The prepared compound solution was intravenously administered to the experimental group mice once a day at the dose of […]. The control was treated with the solvent B only without the compound once a day via oral administration at the dose of 15 ml/kg. The comparative group was treated with the solvent B containing topotecan (2 mg/kg) via intravenous injection once a day at the dose of 15 ml/kg. The weight and the tumor volume were measured once a day on day 0, 2, 4, 7, 9, 11, and 14.
(§2) Tumor volume was calculated by the mathematical formula 1 of Experimental Example 4. To investigate the toxicity according to the repeated intravenous administration of the compound of example 1, mouse weight changes were observed and presented in Table 5. Inhibition rate (%) in Table 6 was calculated by the mathematical formula 2, which indicates the inhibition of tumor growth by the compound presented by %.

[3] = Mouse weight changes and symptoms, repeated intravenous administration (Caki-1 model); format: in vivo; conditions: for Mouse weight changes (%): iv, Example 1 20 mg/kg/day, topotecan 2 mg/kg/day
Method: as §1, §2

[4] = test system: B16F10 melanoma cell line; assay: Tumor growth, B16F10 melanoma in C57BL mice, intraperitoneal administration; format: in vivo, mouse; conditions: Example 1 20 mg/kg/day, topotecan 2 mg/kg/2 day; for Tumor volume changes (mm^3): ip; for Inhibition rate (%) of tumor volume: vs control
Method: Particularly, the experimental group composed of 5 female mice (C57BL) at 6 weeks was transplanted with B16F10 melanoma cell line. After the cancer cells were grown, the mice were treated with the compound of formula 1 via intraperitoneal injection at the dose of […] for 5 days. Inhibition of angiogenesis and the tumor growth were observed. In the meantime, the control group was treated with the mixed solution comprising 10% DMAC, 10% cremophor and 80% buffer (pH 10) every day. The comparative group was treated with topotecan at the dose of 2 mg/kg once every other day. Weight changes and the newly generated blood vessels were measured and the results are shown in Table 7, Table 8, FIG. 7, and FIG. 8. The tumor volume shown in Table 8 was calculated by the mathematical formula 1 of experimental example 4 and the inhibition rate was calculated by the mathematical formula 2 of experimental example 4.

[5] = test system: B16F10 melanoma cell line; assay: Cancer metastasis inhibition activity, B16F10 melanoma lung colonies in C57BL mice; format: in vivo, mouse; conditions: Example 1 20 mg/kg/day, topotecan 2 mg/kg/2 day
Method: Particularly, the experimental group composed of 6 female mice (C57BL) at 6 weeks was transplanted with B16F10 melanoma cell line. After the cancer cells were grown, the mice were treated with the compound of formula 1 via intraperitoneal injection at the dose of […] every day for 12 days. Inhibition of angiogenesis and the tumor growth were observed. In the meantime, the control group was treated with purified water every day. The comparative group was treated with topotecan at the dose of 2 mg/kg once every other day. Weight changes and cancer metastasis were measured and the results are shown in Table 9, Table 10, and FIG. 10.
As shown in Table 10 and FIG. 10, the mice were sacrificed on the last day of experiment (day 12) and then cancer colonies in lung were counted by the naked eye.

Compound: COC(=O)c1cccc(NC(=O)/C=C/Oc2ccc(C34CC5CC(CC(C5)C3)C4)cc2)c1 [Example 1, (E)-3-[3-(4-Adamantan-1-yl-phenoxy)-acryloylamino]-benzoic acid methyl ester]
- body weight on day 8 compared with control ([1]; 30 mg/kg iv, nude mice): no significant weight loss
- symptoms during repeated intravenous administration ([1]; 30 mg/kg iv, nude mice): no specific symptom was observed
- Mouse weight changes (%) ([1]; day 0): 100.0 ± 0.0%
- Mouse weight changes (%) ([1]; day 2): 96.5 ± 2.9%
- Mouse weight changes (%) ([1]; day 3): 94.7 ± 2.3%
- Mouse weight changes (%) ([1]; day 4): 96.0 ± 3.5%
- Mouse weight changes (%) ([1]; day 5): 100.3 ± 1.5%
- Mouse weight changes (%) ([1]; day 6): 101.4 ± 2.5%
- Mouse weight changes (%) ([1]; day 8): 99.9 ± 2.3%
- Tumor volume (mm^3) ([2]; day 0, iv): 0.0 ± 0.0 mm^3
- Tumor volume (mm^3) ([2]; day 2, iv): 17.1 ± 2.0 mm^3
- Inhibition rate (%) of tumor volume ([2]; day 2, vs control): 18.4%
- Tumor volume (mm^3) ([2]; day 4, iv): 41.4 ± 13.5 mm^3
- Inhibition rate (%) of tumor volume ([2]; day 4, vs control): 21.6%
- Tumor volume (mm^3) ([2]; day 7, iv): 77.6 ± 11.8 mm^3
- Inhibition rate (%) of tumor volume ([2]; day 7, vs control): 24.2%
- Tumor volume (mm^3) ([2]; day 9, iv): 107.0 ± 18.5 mm^3
- Inhibition rate (%) of tumor volume ([2]; day 9, vs control): 28.2%
- Tumor volume (mm^3) ([2]; day 11, iv): 141.9 ± 14.8 mm^3
- Inhibition rate (%) of tumor volume ([2]; day 11, vs control): 30.6%
- Tumor weight ([2]; day 14 (final day), iv): 640.0 ± 61.8 mg
- Tumor volume (mm^3) ([2]; day 14, iv): 200.2 ± 34.2 mm^3
- Inhibition rate (%) of tumor volume ([2]; day 14, vs control): 30% and 30.9%
- Inhibition rate (%) of tumor weight ([2]; day 14, vs control): 29.6%
- body weight on the final day of observation (day 14) compared with control ([3]; 20 mg/kg iv, nude mice): not significantly reduced
- symptoms during repeated intravenous administration ([3]; 20 mg/kg iv, nude mice): no specific symptom was observed
- Mouse weight changes (%) ([3]; day 0): 100.0 ± 0.0%
- Mouse weight changes (%) ([3]; day 2): 104.7 ± 1.7%
- Mouse weight changes (%) ([3]; day 4): 105.3 ± 2.2%
- Mouse weight changes (%) ([3]; day 7): 105.5 ± 3.1%
- Mouse weight changes (%) ([3]; day 9): 106.6 ± 4.9%
- Mouse weight changes (%) ([3]; day 11): 107.3 ± 6.8%
- Mouse weight changes (%) ([3]; day 14): 109.5 ± 6.4%
- Tumor volume changes (mm^3) ([4]; day 0): 0.0 ± 0.0 mm^3
- Tumor volume changes (mm^3) ([4]; day 3): 26.8 ± 3.6 mm^3
- Inhibition rate (%) of tumor volume ([4]; day 3): 19.7%
- Tumor volume changes (mm^3) ([4]; day 4): 36.4 ± 4.8 mm^3
- Inhibition rate (%) of tumor volume ([4]; day 4): 22.5%
- Tumor volume changes (mm^3) ([4]; day 5): 55.8 ± 5.8 mm^3
- Inhibition rate (%) of tumor volume ([4]; day 5): 28.9%
- Metastasis colony number ([5]; day 12, ip): 207 and 207.0 ± 47.5
- Metastasis inhibition rate (%) ([5]; day 12, vs control): 32.5%
